These are literature values, as cited in patent US20040185170A1, “Method for coating drug-containing particles and formulations and dosage units formed therefrom” (priority 2003, published 2004).

For data set [1] the following is noted: coating material; from CRC Handbook of Chemistry and Physics, 63rd Edition.
For data set [2] the following is noted: normal atmospheric pressure.

Regarding `CCCCCCCCCCCCC(=O)O` [Tridecanoic acid], the “ΔHvap (heat of vaporization)” value in data set [1] is on record as 19,214.8 g cal mol^−1.

Turning to `CCCCCCCCCCCCCC(=O)OC` [Methyl myristate], the “ΔHvap (heat of vaporization)” value in data set [1] is listed as 16,051.0 g cal mol^−1.

`CCCCCCCCCCCCCCCC(=O)O` [Palmitic acid]: the “ΔHvap (heat of vaporization)” value in data set [1] is 17,603.6 g cal mol^−1.

Turning to `CCCCCCCCCCCCCCCCCC(=O)O` [Stearic acid], the “ΔHvap (heat of vaporization)” value in data set [1] is 19,306.6 g cal mol^−1. Further, the “temperature at which it slowly volatilizes” value in data set [2] is 90-100 °C.

`CCCCCCCCCCCCCCCC(=O)OC` [Methyl palmitate]: the “ΔHvap (heat of vaporization)” value in data set [1] is listed as 17,003.5 g cal mol^−1.

Regarding `CCCCCCCC/C=C\CCCCCCCC(=O)O` [Oleic acid], in data set [1], the “ΔHvap (heat of vaporization)” value is reported as 20,326.7 g cal mol^−1.

Turning to `CCCCCCCCCCCCCC(=O)O` [Myristic acid], in data set [1], the “ΔHvap (heat of vaporization)” value was 18,380.1 g cal mol^−1.

Regarding `CCCCCCCCCC(=O)O` [Capric acid], the “ΔHvap (heat of vaporization)” value in data set [1] was 19,372.6 g cal mol^−1.

Take `CCCCCCCCCCCCCCCCO` [Cetyl alcohol]: in data set [1], the “ΔHvap (heat of vaporization)” value is recorded as 14,483.4 g cal mol^−1.

`CCCCCCCCCCCC(=O)O` [Lauric acid]: the “ΔHvap (heat of vaporization)” value in data set [1] is given as 16,585.3 g cal mol^−1.

On to `CCCCCCCCCCCC(=O)OC` [Methyl laurate], for which the “ΔHvap (heat of vaporization)” value in data set [1] is 14,853.5 g cal mol^−1.
